Source: US10405547B2, “Substituted cyclic amides as herbicides” (FMC Corporation, priority 2015, dated 2019)

Legend:
Type in all cases: in vivo
[1] = tested on: barnyardgrass (Echinochloa crus-galli); test: Test A preemergence, barnyardgrass; conditions: 0 to 100 scale (0 no effect, 100 complete control)
Description: (§1) Test A Seeds of plant species selected from barnyardgrass (Echinochloa crus-galli), kochia (Kochia scoparia), ragweed (common ragweed, Ambrosia elatior), ryegrass, Italian (Lolium multiflorum), foxtail, giant (Setaria faberii), and pigweed (Amaranthus retroflexus), were planted into a blend of loam soil and sand and treated preemergence with a directed soil spray using test chemicals formulated in a non-phytotoxic solvent mixture which included a surfactant.
(§2) At the same time, plants selected from these weed species and also blackgrass (Alopecurus myosuroides), galium (catchweed bedstraw, Galium aparine), wheat (Triticum aestivum), and corn (Zea mays) were planted in pots containing the same blend of loam soil and sand and treated with postemergence applications of test chemicals formulated in the same manner. Plants ranged in height from 2 to 10 cm and were in the one- to two-leaf stage for the postemergence treatment. Treated plants and untreated controls were maintained in a greenhouse for approximately 10 days, after which time all treated plants were compared to untreated controls and visually evaluated for injury. Plant response ratings, summarized in Table A, are based on a 0 to 100 scale where 0 is no effect and 100 is complete control. A dash (-) response means no test result.

kochia (Kochia scoparia) [2] = test: Test A preemergence, kochia; conditions: 0 to 100 scale (0 no effect, 100 complete control)
Description: as §1, §2

[3] = tested on: ragweed (common ragweed, Ambrosia elatior); test: Test A preemergence, ragweed; conditions: 0 to 100 scale (0 no effect, 100 complete control)
Description: as §1, §2

[4] = tested on: ryegrass, Italian (Lolium multiflorum); test: Test A preemergence, Italian ryegrass; conditions: 0 to 100 scale (0 no effect, 100 complete control)
Description: as §1, §2

[5] = tested on: foxtail, giant (Setaria faberii); test: Test A preemergence, giant foxtail; conditions: 0 to 100 scale (0 no effect, 100 complete control)
Description: as §1, §2

[6] = tested on: pigweed (Amaranthus retroflexus); test: Test A preemergence, pigweed; conditions: 0 to 100 scale (0 no effect, 100 complete control)
Description: as §1, §2

[7] = tested on: barnyardgrass (Echinochloa crus-galli); test: Test A postemergence, barnyardgrass; conditions: visual injury, 0 to 100 scale (0 no effect, 100 complete control), approximately 10 days
Description: as §1, §2

kochia (Kochia scoparia) [8] = test: Test A postemergence, kochia; conditions: visual injury, 0 to 100 scale (0 no effect, 100 complete control), approximately 10 days
Description: as §1, §2

[9] = tested on: ragweed (common ragweed, Ambrosia elatior); test: Test A postemergence, ragweed; conditions: visual injury, 0 to 100 scale (0 no effect, 100 complete control), approximately 10 days
Description: as §1, §2

[10] = tested on: ryegrass, Italian (Lolium multiflorum); test: Test A postemergence, Italian ryegrass; conditions: visual injury, 0 to 100 scale (0 no effect, 100 complete control), approximately 10 days
Description: as §1, §2

[11] = tested on: foxtail, giant (Setaria faberii); test: Test A postemergence, giant foxtail; conditions: visual injury, 0 to 100 scale (0 no effect, 100 complete control), approximately 10 days
Description: as §1, §2

[12] = tested on: pigweed (Amaranthus retroflexus); test: Test A postemergence, pigweed; conditions: visual injury, 0 to 100 scale (0 no effect, 100 complete control), approximately 10 days
Description: as §1, §2

[13] = tested on: blackgrass (Alopecurus myosuroides); test: Test A postemergence, blackgrass; conditions: visual injury, 0 to 100 scale (0 no effect, 100 complete control), approximately 10 days
Description: as §1, §2

[14] = tested on: galium (catchweed bedstraw, Galium aparine); test: Test A postemergence, galium; conditions: visual injury, 0 to 100 scale (0 no effect, 100 complete control), approximately 10 days
Description: as §1, §2

[15] = tested on: wheat (Triticum aestivum); test: Test A postemergence, wheat; conditions: visual injury, 0 to 100 scale (0 no effect, 100 complete control), approximately 10 days
Description: as §1, §2

corn (Zea mays) = test: Test A postemergence, corn; conditions: visual injury, 0 to 100 scale (0 no effect, 100 complete control), approximately 10 days
Description: as §1, §2

Row | SMILES | Plant response rating, Barnyardgrass ([1]; 125 g ai/ha) | Plant response rating, Barnyardgrass ([1]; 500 g ai/ha) | Plant response rating, Kochia (kochia (Kochia scoparia) [2]; 125 g ai/ha) | Plant response rating, Kochia (kochia (Kochia scoparia) [2]; 500 g ai/ha) | Plant response rating, Ragweed ([3]; 125 g ai/ha) | Plant response rating, Ragweed ([3]; 500 g ai/ha) | Plant response rating, Ryegrass, Italian ([4]; 125 g ai/ha) | Plant response rating, Ryegrass, Italian ([4]; 500 g ai/ha) | Plant response rating, Foxtail, Giant ([5]; 125 g ai/ha) | Plant response rating, Foxtail, Giant ([5]; 500 g ai/ha) | Plant response rating, Pigweed ([6]; 125 g ai/ha) | Plant response rating, Pigweed ([6]; 500 g ai/ha) | Plant response rating, Barnyardgrass ([7]; 125 g ai/ha) | Plant response rating, Barnyardgrass ([7]; 500 g ai/ha) | Plant response rating, Kochia (kochia (Kochia scoparia) [8]; 125 g ai/ha) | Plant response rating, Kochia (kochia (Kochia scoparia) [8]; 500 g ai/ha) | Plant response rating, Ragweed ([9]; 125 g ai/ha) | Plant response rating, Ragweed ([9]; 500 g ai/ha) | Plant response rating, Ryegrass, Italian ([10]; 125 g ai/ha) | Plant response rating, Ryegrass, Italian ([10]; 500 g ai/ha) | other results
1 | O=C1NCC(c2cccc(Cn3cccn3)c2)C1C(=O)Nc1ccccc1F (stereo not drawn) [Compound 27] | 0 | 20 | 0 | 0 | 0 | 0 | 0 | 0 | 20 | 30 | 0 | 0 | 40 | 70 | 0 | 0 | 0 | 0 | 0 | 0 | Plant response rating, Foxtail, Giant ([11]; 125 g ai/ha): 40; Plant response rating, Foxtail, Giant ([11]; 500 g ai/ha): 50; Plant response rating, Pigweed ([12]; 125 g ai/ha): 0; Plant response rating, Pigweed ([12]; 500 g ai/ha): 0; Plant response rating, Blackgrass ([13]; 125 g ai/ha): 0; Plant response rating, Blackgrass ([13]; 500 g ai/ha): 0; Plant response rating, Galium ([14]; 125 g ai/ha): 0; Plant response rating, Galium ([14]; 500 g ai/ha): 0; Plant response rating, Wheat ([15]; 125 g ai/ha): 0; Plant response rating, Wheat ([15]; 500 g ai/ha): 0; Plant response rating, Corn (corn (Zea mays); 125 g ai/ha): 0; Plant response rating, Corn (corn (Zea mays); 500 g ai/ha): 0
2 | O=C1NCC(c2cccc(Cn3cccn3)c2)C1C(=O)Nc1ccc(F)cc1F (stereo not drawn) [Compound 28] | 0 | 30 | 0 | 0 | 0 | 0 | 0 | 0 | 0 | 30 | 0 | 0 | 0 | 20 | 0 | 0 | 0 | 0 | 0 | 0 | Plant response rating, Foxtail, Giant ([11]; 125 g ai/ha): 0; Plant response rating, Foxtail, Giant ([11]; 500 g ai/ha): 20; Plant response rating, Pigweed ([12]; 125 g ai/ha): 0; Plant response rating, Pigweed ([12]; 500 g ai/ha): 0; Plant response rating, Blackgrass ([13]; 125 g ai/ha): 0; Plant response rating, Blackgrass ([13]; 500 g ai/ha): 0; Plant response rating, Galium ([14]; 125 g ai/ha): 0; Plant response rating, Galium ([14]; 500 g ai/ha): 0; Plant response rating, Wheat ([15]; 125 g ai/ha): 0; Plant response rating, Wheat ([15]; 500 g ai/ha): 0; Plant response rating, Corn (corn (Zea mays); 125 g ai/ha): 0; Plant response rating, Corn (corn (Zea mays); 500 g ai/ha): 0
3 | O=C1NCC(c2cccc(Cn3cccn3)c2)C1C(=O)Nc1ccccc1Cl (stereo not drawn) [Compound 29] | 0 | 40 | 0 | 0 | 0 | 0 | 0 | 0 | 0 | 40 | 0 | 0 | 0 | 20 | 0 | 0 | 0 | 0 | 0 | 0 | Plant response rating, Foxtail, Giant ([11]; 125 g ai/ha): 0; Plant response rating, Foxtail, Giant ([11]; 500 g ai/ha): 20; Plant response rating, Pigweed ([12]; 125 g ai/ha): 0; Plant response rating, Pigweed ([12]; 500 g ai/ha): 0; Plant response rating, Blackgrass ([13]; 125 g ai/ha): 0; Plant response rating, Blackgrass ([13]; 500 g ai/ha): 0; Plant response rating, Galium ([14]; 125 g ai/ha): 0; Plant response rating, Galium ([14]; 500 g ai/ha): 0; Plant response rating, Wheat ([15]; 125 g ai/ha): 0; Plant response rating, Wheat ([15]; 500 g ai/ha): 0; Plant response rating, Corn (corn (Zea mays); 125 g ai/ha): 0; Plant response rating, Corn (corn (Zea mays); 500 g ai/ha): 0
